# Experimental data as given in patent publication US20220016196A1, “Aloe Based Compositions Comprising Polysaccharides and Polyphenols for Regulation of Homeostasis of Immunity” (Unigen, Inc., priority 2020, published 2022).
# Tests used:
# [1] = tested on: acute ear edema induced by tetradecanoyl phorbol acetate (TPA); details: acute ear edema induced by TPA (Cuellar et al 1997); cited from earlier work
# HMGB1 = test: Inhibition of hyperoxia-induced HMGB1 release from macrophages (ELISA); assay type: cell-based, mouse; details: RAW 264.7 cells, 95% O2 24 hours, test substance 25 μg/mL, ELISA of supernatant
# Description: Macrophages cultured under hyperoxic conditions experience oxidative stress, causing them to secrete HMGB1 to the cell culture media. To determine the efficacy of the Aloe-based composition and its components in reducing the accumulation of extracellular HMGB1 of cultured macrophages, RAW 264.7 cells were exposed for 24 hours to either 21% O2 (room air (RA)), or 95% O2 in the presence or absence of test substance at 25 μg/mL concentration. HMGB1 levels in cell culture supernatants were determined by ELISA at a single concentration of test substance in duplicate. The data are expressed as mean±SEM of one experiment assayed in duplicate. *p<0.05, **p<0.01, ****p<0.0001 compared to macrophages treated under hyperoxia with vehicle only. Control cells were treated with Sodium Salicylate (SS) as a positive control, which attenuates hyperoxia-compromised macrophage function and oxidative-stress-induced HMGB 1 release.
# [2] = DPPH assay, 100 mg/L (Hu et al., 2003); cited from earlier work
# HaCaT cells [3] = test: UVA&UVB induced ROS assay in HaCaT cell; assay type: cell-based, human; details: positive control, 40 μg/mL
# Description: HaCaT cells (Human immortal keratinocyte cells) were seeded at a density of 8,000 cells/well in 96-well tissue culture plates and treated for 24 hours with test substance at 25 μg/mL. […] DCFH-DA (a fluorescent probe) was added to cells to detect ROS production and incubated at 37° C. for 25 minutes. After exposure to UV irradiation under the solar simulator (Sol-UV-6 Solar Simulator) with ultraviolet filter for 10 minutes, the fluorescence value was measured at 488 nm (excitation) and 525 nm (emission) by Multimode Reader. […] Organic extracts (OE) were tested at 50 μg/mL, while aqueous extracts were tested at 100 μg/mL. Fractions or pure compounds were tested at 25 μg/mL in this assay.
# [4] = tested on: HSF cells (Human fibroblasts); test: DNA damage of human fibroblasts induced by hydrogen peroxide (γH2AX); assay type: cell-based; details: γH2AX staining, H2O2 1 mM 4 h
# Description: HSF cells (Human fibroblasts) were seeded in 96-well tissue culture plates and incubated at 37° C. and in 5% CO2 and 95% air with test substances. Treated HSF cells were subjected to DNA damage by incubating with H2O2 at a concentration of 1 mM for 4 h, then immunostained for γH2AX, a phosphorylated histone that is a marker of DNA double strand breaks. DAPI was used to stain the cell nucleus. Pictures taken by Image Xpress and analyzed with Meta Xpress. Catechin (100 μg/ml) was used as positive control with 70% reduction of DNA damage, as assessed by quantification of γH2AX staining. […]. Rosmarinic acid reduced DNA damage by 24% at 25 μg/mL.
# phospholipase A2 = phospholipase A2 from snake venom (Cuéllar et al 1996); cited from earlier work
# RAW 264.7 cells [5] = test: MTT assay in cultured RAW 264.7 cells under hyperoxia; assay type: cell-based, mouse; details: RAW 264.7, 95% O2 24 hours
# Description: Cell viability was determined by MTT assay.
# RAW 264.7 cells [6] = test: Hyperoxia-induced dysfunctional macrophage phagocytosis assay; assay type: cell-based, mouse; details: RAW 264.7, 95% O2 24 hours, beads per cell as percent increase
# Description: RAW 264.7 cells either remained at room air (21% O2) or were exposed to 95% O2 for 24 hours in the presence of test substance. Cells were then incubated with FITC-labeled latex mini-beads for 1 hour and stained with phalloidin and DAPI to visualize the actin cytoskeleton and nuclei, respectively. For quantification of phagocytic activity, at least 200 cells per group were counted and the numbers of beads per cell were represented as a percent increase compared to the 21% 02 (0 μg/ml) control group. Each value represents the mean±SEM of 3 independent experiments for each group, in duplicate. *, P<0.05 compared to the 21% O2 (0 μg/ml) control group.
# HaCaT cells [7] = test: Cytotoxicity (CCK viability) in HaCaT cells; assay type: cell-based, human; details: 25 μg/mL
# Description: HaCaT cells (Human immortal keratinocyte cells) were seeded at a density of 8,000 cells/well in 96-well tissue culture plates and treated for 24 hours with test substance at 25 μg/mL. Cytotoxicity was evaluated to remove false positives (CCK >80% viability). DCFH-DA (a fluorescent probe) was added to cells to detect ROS production and incubated at 37° C. for 25 minutes. After exposure to UV irradiation under the solar simulator (Sol-UV-6 Solar Simulator) with ultraviolet filter for 10 minutes, the fluorescence value was measured at 488 nm (excitation) and 525 nm (emission) by Multimode Reader. Vitamin C was used as positive control treated at 40 μg/mL with 43% reduction of ROS production. At 25 μg/mL, Rosmarinic acid decreased ROS generation by 24%, compared to the level of UV exposed HaCaT cells. Organic extracts (OE) were tested at 50 μg/mL, while aqueous extracts were tested at 100 μg/mL. Fractions or pure compounds were tested at 25 μg/mL in this assay.
# [8] = tested on: Pseudomonas aeruginosa (PA) infected hyperoxic mice; test: Hyperoxia-induced mortality in Pseudomonas aeruginosa (PA)-infected mice; assay type: in vivo, mouse
# Pseudomonas aeruginosa = test: Bacterial clearance in the airways in hyperoxic and PA infected mice; assay type: in vivo, mouse; details: 24 hours after infection
# [9] = tested on: hyperoxic and PA infected mice; test: Oxidative stress-exacerbated acute lung injury induced by bacterial infection (BAL total protein, biomarkers, histology); assay type: in vivo, mouse; details: hyperoxia + PA infected mice, Resveratrol 50 mg/kg
compound,measurement,setting,value
hydrotumulosic acid,IC50,[1],0.68 nmol/ear
CC(=O)Cc1cc(=O)c2c(C)cc(O)c([C@@H]3O[C@H](CO)[C@@H](O)[C@H](O)[C@H]3O)c2o1 [Aloesin],HMGB1 inhibition,HMGB1,52.47
Cc1c(C)c2c(c(C)c1O)CC[C@@](C)(CCC[C@H](C)CCC[C@H](C)CCCC(C)C)O2 [a-tocopherol],radical scavenging activity,[2],65.20%
O=C1O[C@H]([C@@H](O)CO)C(O)=C1O [Vitamin C],reduction of ROS production,HaCaT cells [3],43%
Cc1cc(C(C)(C)C)c(O)c(C(C)(C)C)c1 [butylated hydroxytoluene],radical scavenging activity,[2],70.52%
Catechin,reduction of DNA damage,[4]; 100 μg/ml,70%
C=C(CC[C@@H](C(=O)O)[C@H]1[C@H](O)C[C@@]2(C)C3=CC[C@H]4C(C)(C)[C@@H](O)CC[C@]4(C)C3=CC[C@]12C)C(C)C [dehydrotumulosic acid],IC50,phospholipase A2,845 µM
O=C(/C=C/c1ccc(O)c(O)c1)O[C@H](Cc1ccc(O)c(O)c1)C(=O)O [Rosmarinic acid],inhibition at 25 µg/mL,"HMGB1; Mus musculus, RAW264.7",73%
same,MTT (% reduction),RAW 264.7 cells [5]; 12 μg/mL,5.63%
same,MTT (% reduction),RAW 264.7 cells [5]; 25 μg/mL,13.47%
same,MTT (% reduction),RAW 264.7 cells [5]; 50 μg/mL,20.03%
same,MTT (% reduction),RAW 264.7 cells [5]; 100 μg/mL,20.53%
same,Phagocytosis,RAW 264.7 cells [6]; 12 μg/mL,51.00%
same,Phagocytosis,RAW 264.7 cells [6]; 25 μg/mL,74.35%
same,Viability (%),HaCaT cells [7],57%
same,reduction of DNA damage,[4]; 25 μg/mL,24%
Oc1ccc(C=Cc2cc(O)cc(O)c2)cc1 [resveratrol],mortality rate,"[8]; 7 days prophylactic treatment, hyperoxia 2 days, PA inoculated, 24 hours post-inoculation",27%
same,Dead animals,"[8]; RES 50 mg/kg, hyperoxia + PA inoculation, 11 total animals",3
same,Mortality %,"[8]; RES 50 mg/kg, hyperoxia + PA inoculation, 24 hours post-inoculation",27.27%
same,"Bacterial load in the airways, ×10^5 CFU/mL (Mean ± SE)","Pseudomonas aeruginosa; RES 50 mg/kg, hyperoxic and PA infected mice",2.4 ± 0.7 ×10^5 CFU/mL
same,bacterial load in the airways vs hyperoxia + vehicle (O2),"Pseudomonas aeruginosa; UP360 500 mg/kg, Resveratrol 50 mg/kg oral, >99% O2 48 hours, PA intranasal",airway bacterial load was significantly lower
same,lung injury,[9],significantly reduce lung injury
